Where two headings read alike, the source gives them in different places.
Molecular target: T1, GLP-1 receptor (Homo sapiens, UniProt P43220)
T1 construct: expressed in transfected cells; host or cells: CHO-K1
Test: cAMP assay (HTRF) in GLP-1 receptor CHO-K1 cells
Type: cell-based
Conditions: for Emax: CHO-K1, cAMP stimulation ratio
Procedure: The cAMP assay test was performed according to a method optimized based on a protocol provided by cAMP assay kit manufacturer (CISBIO). […] 54, of the compounds according to the Examples 1, 2, 5, 8, 12, 13, 15, 16, 19, 20, 23, 29, 32, 37, 39 and 43 at the concentration of 0, 1, 10, 100, 1000, 10000 nM was treated to each of the wells of the other plates, respectively. The cells were incubated at room temperature for 7 minutes. A cAMP-d2 conjugate reagent was prepared by mixing a cAMP conjugate with an elution buffer at a ratio of 1:4. An anti-cAMP cryptate conjugate reagent was prepared by mixing a […] with an elution buffer at a ratio of 1:4. Then, 5 μL, of the cAMP-d2 conjugate reagent was added to each of the wells. Subsequently, 5 μL, of the anti-cAMP cryptate conjugate reagent was added to each of the wells. After incubation of the cells at room temperature for 1 hour, HTRF signals at wavelengths of 665 nm and 620 nm of the culture were measured using a FlexStaton 3 (Molecular Devices) instrument. The ratio of 665/620 was calculated from the measured values at 665 nm and 620 nm with regard to Exendin-4 and the compounds of the Examples, respectively.

[1] = 665/620 ratio with Exendin-4 converted to 100%

T1 sequence (P43220 24-463, species assumed): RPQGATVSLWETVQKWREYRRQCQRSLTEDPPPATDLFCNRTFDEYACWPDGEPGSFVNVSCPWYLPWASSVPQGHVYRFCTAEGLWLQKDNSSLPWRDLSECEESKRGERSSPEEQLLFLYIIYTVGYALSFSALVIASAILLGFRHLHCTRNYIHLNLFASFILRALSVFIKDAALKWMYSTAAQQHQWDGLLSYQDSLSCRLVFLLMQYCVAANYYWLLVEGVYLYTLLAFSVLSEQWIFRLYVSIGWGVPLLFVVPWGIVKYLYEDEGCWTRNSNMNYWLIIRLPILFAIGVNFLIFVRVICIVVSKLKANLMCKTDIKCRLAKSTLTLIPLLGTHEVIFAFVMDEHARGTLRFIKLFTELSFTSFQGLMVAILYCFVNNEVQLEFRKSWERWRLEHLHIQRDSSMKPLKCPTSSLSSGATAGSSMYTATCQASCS

Compound | EC50 [nM] | Emax [1] [%] | EC50 (GLP-1 receptor CHO-K1 cells, cAMP HTRF, 7 minutes incubation at room temperature) [nM] | Emax (%) (cAMP stimulation ratio, 665/620 ratio with Exendin-4 converted to 100%)
N#Cc1ccc(COc2cccc(NC3CCN(Cc4nc5ccc(C(=O)O)cc5n4C[C@@H]4CCO4)CC3)c2)c(F)c1 [Example 2, (S)-2-((4-((3-((4-cyano-2-fluorobenzyl)oxy)phenyl)amino)piperidin-1-yl)methyl)-1-(oxetan-2-ylmethyl)-1H-benzo[d]imidazole-6-carboxylic acid] | 100 to 200 | 102 | – | –
O=C(O)c1ccc2nc(CN3CCC(Oc4cccc(NCc5ccc(Cl)cc5F)n4)CC3)n(C[C@@H]3CCO3)c2c1 [Example 5, (S)-2-((4-((6-((4-chloro-2-fluorobenzyl)amino)pyridin-2-yl)oxy)piperidin-1-yl)methyl)-1-(oxetan-2-ylmethyl)-1H-benzo[d]imidazole-6-carboxylic acid] | 100 to 200 | 107 | – | –
N#Cc1ccc(COc2cncc(NC3CCN(Cc4nc5ccc(C(=O)O)cc5n4C[C@@H]4CCO4)CC3)n2)c(F)c1 [Example 19, (S)-2-((4-((6-((4-cyano-2-fluorobenzyl)oxy)pyrazin-2-yl)amino)piperidin-1-yl)methyl)-1-(oxetan-2-ylmethyl)-1H-benzo[d]imidazole-6-carboxylic acid] | 100 to 200 | 97 | – | –
N#Cc1ccc(COc2cccc(N[C@@H]3CCN(Cc4nc5ccc(C(=O)O)cc5n4C[C@@H]4CCO4)C3)n2)c(F)c1 [Example 20, 2-((3-((6-((4-cyano-2-fluorobenzyl)oxy)pyridin-2-yl)amino)pyrrolidin-1-yl)methyl)-1-(((S)-oxetan-2-yl)methyl)-1H-benzo[d]imidazole-6-carboxylic acid] | < 100 | 96.3 | – | –
N#Cc1ccc(COc2nccc(N[C@@H]3CCN(Cc4nc5ccc(C(=O)O)cc5n4C[C@@H]4CCO4)C3)n2)c(F)c1 [Example 23, 2-(((R)-3-((2-((4-cyano-2-fluorobenzyl)oxy)pyrimidin-4-yl)amino)pyrrolidin-1-yl)methyl)-1-(((S)-oxetan-2-yl)methyl)-1H-benzo[d]imidazole-6-carboxylic acid] | 100 to 200 | 99.8 | – | –
O=C(O)c1ccc2nc(CN3CC[C@@H](Nc4ncc(F)c(OCc5ccc(Cl)cc5F)n4)C3)n(C[C@@H]3CCO3)c2c1 [Example 29, 2-(((R)-3-((4-((4-chloro-2-fluorobenzyl)oxy)-5-fluoropyrimidin-2-yl)amino)pyrrolidin-1-yl)methyl)-1-(((S)-oxetan-2-yl)methyl)-1H-benzo[d]imidazole-6-carboxylic acid] | < 100 | 99.2 | – | –
N#Cc1ccc(COc2cccc(N[C@@H]3CCN(Cc4nc5ccc(C(=O)O)cc5n4C[C@@H]4CCO4)C3)n2)c(F)c1 [Example 32, 2-(((R)-3-((6-((4-cyano-2-fluorobenzyl)oxy)pyridin-2-yl)amino)pyrrolidin-1-yl)methyl)-1-(((S)-oxetan-2-yl)methyl)-1H-benzo[d]imidazole-6-carboxylic acid] | – | – | < 100 | 96.94
N#Cc1ccc(COc2cccc(N[C@@H]3CCN(Cc4nc5ccc(C(=O)O)cc5n4C[C@@H]4CCO4)C3)c2)c(F)c1 [Example 37, 2-(((R)-3-((3-((4-cyano-2-fluorobenzyl)oxy)phenyl)amino)pyrrolidin-1-yl)methyl)-1-(((S)-oxetan-2-yl)methyl)-1H-benzo[d]imidazole-6-carboxylic acid] | < 100 | 127 | – | –
O=C(O)c1ccc2nc(CN3CCC(Nc4cccc(OCc5ccc(Cl)cn5)n4)CC3)n(C[C@@H]3CCO3)c2c1 [Example 39, (S)-2-((4-((6-((5-chloropyridin-2-yl)methoxy)pyridin-2-yl)amino)piperidin-1-yl)methyl)-1-(oxetan-2-ylmethyl)-1H-benzo[d]imidazole-6-carboxylic acid] | 100 to 200 | 96.6 | – | –
N#Cc1ccc(COc2ccnc(N[C@@H]3CCN(Cc4nc5ccc(C(=O)O)cc5n4C[C@@H]4CCO4)C3)n2)c(F)c1 [Example 43, 2-(((R)-3-((4-((4-cyano-2-fluorobenzyl)oxy)pyrimidin-2-yl)amino)pyrrolidin-1-yl)methyl)-1-(((S)-oxetan-2-yl)methyl)-1H-benzo[d]imidazole-6-carboxylic acid] | < 100 | 110 | – | –

Next, values leading:

EC50 [nM] | Emax [1] [%] | EC50 (GLP-1 receptor CHO-K1 cells, cAMP HTRF, 7 minutes incubation at room temperature) [nM] | Emax (%) (cAMP stimulation ratio, 665/620 ratio with Exendin-4 converted to 100%) | Compound
< 100 | 96.3 | – | – | N#Cc1ccc(COc2cccc(NC3CCN(Cc4nc5ccc(C(=O)O)cc5n4C[C@@H]4CCO4)CC3)n2)c(F)c1 [Example 1, (S)-2-((4-((6-((4-cyano-2-fluorobenzyl)oxy)pyridin-2-yl)amino)piperidin-1-yl)methyl)-1-(oxetan-2-ylmethyl)-1H-benzo[d]imidazole-6-carboxylic acid]
< 100 | 99.6 | – | – | N#Cc1ccc(COc2cc(N[C@@H]3CCN(Cc4nc5ccc(C(=O)O)cc5n4C[C@@H]4CCO4)C3)ccc2F)nc1 [Example 8, 2-(((R)-3-((3-((5-cyanopyridin-2-yl)methoxy)-4-fluorophenyl)amino)pyrrolidin-1-yl)methyl)-1-(((S)-oxetan-2-yl)methyl)-1H-benzo[d]imidazole-6-carboxylic acid]
< 100 | 103 | – | – | O=C(O)c1ccc2nc(CN3CCC(Nc4cccc(OCc5ccc(Cl)cc5F)n4)CC3)n(C[C@@H]3CCO3)c2c1 [Example 12, (S)-2-((4-((6-((4-chloro-2-fluorobenzyl)oxy)pyridin-2-yl)amino)piperidin-1-yl)methyl)-1-(oxetan-2-ylmethyl)-1H-benzo[d]imidazole-6-carboxylic acid]
< 100 | 94.5 | – | – | O=C(O)c1ccc2nc(CN3CCC(Nc4cccc(OCc5ccc(Cl)cc5F)n4)CC3)n(C[C@@H]3CCO3)c2n1 [Example 13]
< 100 | 99.6 | – | – | O=C(O)c1ccc2nc(CN3CC[C@@H](Nc4cccc(OCc5ccc(Cl)cc5F)n4)C3)n(C[C@@H]3CCO3)c2c1 [Example 15, 2-(((R)-3-((6-((4-chloro-2-fluorobenzyl)oxy)pyridin-2-yl)amino)pyrrolidin-1-yl)methyl)-1-(((S)-oxetan-2-yl)methyl)-1H-benzo[d]imidazole-6-carboxylic acid]
< 100 | 95 | – | – | O=C(O)c1ccc2nc(CN3CC[C@@H](Nc4cccc(OCc5ccc(Cl)cc5F)n4)C3)n(C[C@@H]3CCO3)c2n1 [Example 16, 2-(((R)-3-((6-((4-chloro-2-fluorobenzyl)oxy)pyridin-2-yl)amino)pyrrolidin-1-yl)methyl)-3-(((S)-oxetan-2-yl)methyl)-3H-imidazo[4,5-b]pyridine-5-carboxylic acid]

Reference: patent US20230002348A1 (ILDONG PHARMACEUTICAL CO., LTD., priority 2019, published 2023)
